# Where no end group is shown, it is not given here.
# Experiments:
# subjects with knee OA [1] = details: cited from earlier work
# [2] = biological target: integrin αVβ3 expressed by osteocytes (Homo sapiens, UniProt P05106+P06756); details: cited from earlier work
# human and rat bone cells = details: human and rat/murine orthologues; cited from earlier work
# [3] = system: subjects with bilateral knee osteoarthritis; details: human, in vivo
# Protocol: Eighteen (18) orthopedic, rheumatologic and family practice centers in the U.S. participated in the study.
# On the first dosing day, the randomized subjects were assessed by physical examinations and vital signs. Further, they completed the Knee injury and Osteoarthritis Outcome Score (KOOS), which includes the Western Ontario and McMaster Universities Osteoarthritis Index (WOMAC). The KOOS questionnaire assesses knee-specific activities of daily living, sports and recreation, knee-related quality of life, other symptoms such as stiffness, and knee pain. […] After assessments were completed, subjects received one intra-articular injection in each knee, with each injection prepared from the vial(s) marked for that knee. […] Subjects were monitored for adverse events during the injections and for a few hours after the injections. Vital signs were also monitored after the injections.
# On the 7th, 14th, and 21st days after the first dosing, subjects received the second, third, and fourth (last) dosing of the same study materials, respectively. Safety and adverse event assessments were obtained as on the first dosing day.
# Subjects returned to their respective study sites at 3, 6 and 12 months after the first dosing day for follow-up evaluations. In addition, the study sites monitored the subject's condition through telephone contact 9 months after the first dosing day. During the 3, 6, and 12 months post-treatment, subjects were evaluated on site with physical examinations, vital signs, serum chemistries, as well as completing patient-reported outcomes including the KOOS. Adverse events and concomitant medications were recorded. MRIs of both knees were obtained during the 6 and 12-month visits.
# subjects with knee OA [4] = details: cited from earlier work; remark: listed apart in the source
# Sequence of integrin αVβ3 expressed by osteocytes (P06756 31-889 limits assumed): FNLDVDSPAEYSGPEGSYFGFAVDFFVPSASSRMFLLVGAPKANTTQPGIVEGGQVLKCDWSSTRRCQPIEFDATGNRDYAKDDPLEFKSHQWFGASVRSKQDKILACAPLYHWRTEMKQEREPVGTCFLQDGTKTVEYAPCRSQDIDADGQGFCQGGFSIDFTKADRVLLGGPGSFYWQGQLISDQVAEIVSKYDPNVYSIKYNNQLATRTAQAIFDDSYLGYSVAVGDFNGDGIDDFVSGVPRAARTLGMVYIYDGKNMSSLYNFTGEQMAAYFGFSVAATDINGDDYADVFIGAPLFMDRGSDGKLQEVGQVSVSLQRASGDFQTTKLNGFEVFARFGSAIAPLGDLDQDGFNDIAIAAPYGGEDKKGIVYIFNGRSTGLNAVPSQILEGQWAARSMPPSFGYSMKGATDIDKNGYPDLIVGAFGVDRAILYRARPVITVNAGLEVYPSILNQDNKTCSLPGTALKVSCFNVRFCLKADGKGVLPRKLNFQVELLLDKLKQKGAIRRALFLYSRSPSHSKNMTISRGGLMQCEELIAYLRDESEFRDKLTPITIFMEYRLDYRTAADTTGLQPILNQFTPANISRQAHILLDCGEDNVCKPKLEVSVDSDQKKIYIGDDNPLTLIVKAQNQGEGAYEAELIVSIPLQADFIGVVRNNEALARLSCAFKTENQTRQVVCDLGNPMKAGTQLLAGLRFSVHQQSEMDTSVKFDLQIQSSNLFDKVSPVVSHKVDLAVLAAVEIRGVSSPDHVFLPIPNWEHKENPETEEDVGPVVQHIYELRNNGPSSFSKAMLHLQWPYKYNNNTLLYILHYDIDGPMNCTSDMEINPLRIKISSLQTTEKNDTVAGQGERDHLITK
# Sequence of integrin αVβ3 expressed by osteocytes (P06756 891-1048 limits assumed): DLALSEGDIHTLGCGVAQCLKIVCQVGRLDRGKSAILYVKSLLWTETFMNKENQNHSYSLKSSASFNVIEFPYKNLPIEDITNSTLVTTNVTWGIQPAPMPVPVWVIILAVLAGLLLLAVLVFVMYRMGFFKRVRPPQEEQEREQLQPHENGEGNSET
# Sequence of integrin αVβ3 expressed by osteocytes (P05106 27-788): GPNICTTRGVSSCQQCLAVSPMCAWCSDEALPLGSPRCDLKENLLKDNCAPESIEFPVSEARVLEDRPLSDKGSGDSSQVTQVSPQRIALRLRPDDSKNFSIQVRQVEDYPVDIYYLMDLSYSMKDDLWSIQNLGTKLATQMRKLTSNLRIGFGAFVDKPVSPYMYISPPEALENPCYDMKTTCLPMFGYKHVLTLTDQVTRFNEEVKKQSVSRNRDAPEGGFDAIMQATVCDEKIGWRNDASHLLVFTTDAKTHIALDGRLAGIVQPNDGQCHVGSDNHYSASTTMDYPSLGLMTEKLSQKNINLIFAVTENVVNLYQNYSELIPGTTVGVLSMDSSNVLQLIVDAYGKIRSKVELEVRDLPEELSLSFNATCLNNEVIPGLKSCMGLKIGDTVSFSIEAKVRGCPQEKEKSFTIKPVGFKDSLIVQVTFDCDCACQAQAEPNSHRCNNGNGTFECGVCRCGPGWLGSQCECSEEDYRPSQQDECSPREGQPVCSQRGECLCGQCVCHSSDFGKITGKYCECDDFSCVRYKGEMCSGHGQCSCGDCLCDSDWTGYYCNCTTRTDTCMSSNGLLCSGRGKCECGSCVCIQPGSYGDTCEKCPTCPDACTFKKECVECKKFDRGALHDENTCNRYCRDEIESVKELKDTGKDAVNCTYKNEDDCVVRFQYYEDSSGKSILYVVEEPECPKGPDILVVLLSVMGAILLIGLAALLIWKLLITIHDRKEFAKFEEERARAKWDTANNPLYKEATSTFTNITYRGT
molecule,measurement,setting,value
N#Cc1c(N(CC(=O)[O-])CC(=O)[O-])sc(C(=O)[O-])c1CC(=O)[O-].[Sr+2].[Sr+2] [strontium ranelate],Risk of myocardial infarction,"subjects with knee OA [1]; human, in vivo",increase the risk of myocardial infarction
PDLQERGDNDISPFSGDGQPFKD [SEQ ID No: 12],Binding to integrin αVβ3,[2],selectively bind to integrin αVβ3
PDLLVRGDNDVPPFSGDGQHFMH [SEQ ID No: 14],Biological activities in bone cells of the other species,human and rat bone cells,interchangeably show biological activities in the bone cells of the other species
O=P(O)(O)C(O)(Cc1cccnc1)P(=O)(O)O [risedronate],Effects on pain,"subjects with knee OA [1]; largest study, n=2483 (Bingham 2006)",favoring placebo over active drug
TDLQERGDNDISPFSGDGQPFKD [SEQ ID No: 10],Safety and tolerability,[3],safe and well tolerated
same,Severe adverse events related to the peptide,[3],no severe adverse events
same,Treatment-related adverse events,[3],"mild or moderate, transient"
"Fibroblast Growth Factor-18 (protein, UniProt O76093 28-207, looked up, growth factor tested for cartilage regeneration in knee OA) Fibroblast growth factor 18: EENVDFRIHVENQTRARDDVSRKQLRLYQLYSRTSGKHIQVLGRRISARGEDGDKYAQLLVETDTFGSQVRIKGKETEFYLCMNRKGKLVGKPDGTSKECVFIEKVLENNYTALMSAKYSGWYVGFTKKGRPRKGPKTRENQQDVHFMKRYPKGQPELQKPFKYTTVTKRSRRIRPTHPA",Clinical outcomes such as knee function or pain vs placebo,subjects with knee OA [4],no significant improvement
same,Tibiofemoral cartilage thickness,subjects with knee OA [4],small but statistically significant increase

# Reference: patent publication US12514900B2, “Method to identify responders to osteoarthritis therapeutics” (OrthoTrophix, Inc., priority 2020, dated 2026)
